Test results reported in US10183950B2, “Thienopyrimidine inhibitors of atypical protein kinase C” (Cancer Research Technology Limited, priority 2011, dated 2019).

Each compound was assayed against T1, full-length human PKCι (Homo sapiens, UniProt P41743) (assay: PKCι IC50 IMAP fluorescence polarisation assay, full-length enzyme). Conditions: full length PKCi at 15 μM ATP; read-out: IC50 in IMAP assay against full length PKCi.
T1 construct: Recombinant, full-length human PKCι expressed in Sf21 insect cells is also commercially available; purchased; host or cells: Sf21 insect cells
T1 sequence (P41743 1-596): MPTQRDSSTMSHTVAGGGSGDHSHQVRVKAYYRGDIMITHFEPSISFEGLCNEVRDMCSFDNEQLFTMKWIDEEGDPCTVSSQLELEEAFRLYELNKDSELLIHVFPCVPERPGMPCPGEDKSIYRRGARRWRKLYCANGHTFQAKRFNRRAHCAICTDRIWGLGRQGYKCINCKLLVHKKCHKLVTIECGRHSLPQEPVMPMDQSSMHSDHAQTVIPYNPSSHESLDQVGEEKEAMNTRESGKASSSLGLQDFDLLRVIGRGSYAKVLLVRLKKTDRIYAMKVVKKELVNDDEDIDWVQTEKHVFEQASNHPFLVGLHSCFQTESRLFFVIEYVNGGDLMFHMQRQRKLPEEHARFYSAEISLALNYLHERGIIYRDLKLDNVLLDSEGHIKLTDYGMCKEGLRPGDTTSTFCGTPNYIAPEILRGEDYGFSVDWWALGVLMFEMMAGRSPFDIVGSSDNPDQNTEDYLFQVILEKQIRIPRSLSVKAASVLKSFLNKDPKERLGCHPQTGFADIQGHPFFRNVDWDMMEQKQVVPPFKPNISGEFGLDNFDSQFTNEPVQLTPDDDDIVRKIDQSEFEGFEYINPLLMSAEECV
Assay type: biochemical
Description: Assays are based on the ability of PKCι to phosphorylate a commercially available peptide substrate in vitro. […] Recombinant, full-length human PKCι expressed in Sf21 insect cells is also commercially available. Recombinant, kinase-domain human PKCι is expressed and purified in-house.
The procedure below explains how dose response curves for inhibitors of PKCι are obtained.
Compounds to be tested are dissolved in 100% DMSO. […] 1 μl is plated into 384 well black low-binding flat bottomed assay plates which are used immediately. Dilutions and additions of compound to assay plates are carried out using Matrix WellMate® and Matrix PlateMate® Plus liquid handling systems.
The final concentration of peptide substrate in the assay is 100 nM. […] Relevant controls are included, namely no compound and no enzyme. […] The reaction is allowed to incubate for 60 minutes at room temperature, before the reaction is stopped and developed by the addition of 20 μl IMAP™ development reagent (Molecular Devices). IMAP development reagent consists of 0.25% (v/v) IMAP progressive binding reagent, 17% (v/v) IMAP progressive binding buffer A and 3% (v/v) IMAP progressive binding buffer B. The plates are then incubated for 2 hours at room temperature before being read using an appropriate plate reader, for example a Molecular Devices HT Analyst or a BMG Pherastar.

Compared with CS(=O)(=O)Nc1cc(-c2nc(N[C@@H]3CCNC3)c3sccc3n2)ccn1 [compound 624, N-{4-[4-((R)-Pyrrolidin-3-ylamino)-thieno[3,2-d]pyrimidin-2-yl]-pyridin-2-yl}-methanesulfonamide], c1cc(-c2nc(N[C@@H]3CCNC3)c3sccc3n2)cc(Nc2ccc(N3CCCCC3)cc2)n1 [compound 608, {2-[2-(4-Piperidin-1-yl-phenylamino)-pyridin-4-yl]-thieno[3,2-d]pyrimidin-4-yl}-(R)-pyrrolidin-3-yl-amine] is lower in IC50: 10000 to 40000 nM for the first, 100 to 1000 nM for the second. The second is the more potent here.

CNCCNc1nc(-c2ccncc2)nc2c(Br)csc12 [compound 345, N-(7-Bromo-2-pyridin-4-yl-thieno[3,2-d]pyrimidin-4-yl)-N′-methyl-ethane-1,2-diamine] and Cc1sc2c(NC[C@H](C)N)nc(-c3ccncc3)nc2c1Br [compound 331, (S)-N*1*-(7-Bromo-6-methyl-2-pyridin-4-yl-thieno[3,2-d]pyrimidin-4-yl)-propane-1,2-diamine] fall in the same range of IC50: 1000 to 10000 nM for the first, 1000 to 10000 nM for the second.

First: CC(C)(N)C#Cc1csc2c(NC[C@@H](N)Cc3ccccc3)nc(-c3ccncc3)nc12 [compound 516, (S)-N*1*-[7-(3-Amino-3-methyl-but-1-ynyl)-2-pyridin-4-yl-thieno[3,2-d]pyrimidin-4-yl]-3-phenyl-propane-1,2-diamine]
Second: COC(C)(C)C#Cc1csc2c(NC[C@@H](N)Cc3ccccc3)nc(-c3ccncc3)nc12 [compound 520, (S)-N*1*-[7-(3-Methoxy-3-methyl-but-1-ynyl)-2-pyridin-4-yl-thieno[3,2-d]pyrimidin-4-yl]-3-phenyl-propane-1,2-diamine]
The IC50 of the first is higher: 1000 to 10000 nM for the first, 100 to 1000 nM for the second. The second is the more potent here.

Compared with Cc1ccsc1-c1csc2c(NC[C@@H](N)Cc3ccccc3)nc(-c3ccncc3)nc12 [compound 396, (S)-N*1*-[7-(3-Methyl-thiophen-2-yl)-2-pyridin-4-yl-thieno[3,2-d]pyrimidin-4-yl]-3-phenyl-propane-1,2-diamine], Cn1nccc1-c1csc2c(NC[C@@H](N)Cc3ccccc3)nc(-c3ccncc3)nc12 [compound 391, (S)-N*1*-[7-(2-Methyl-2H-pyrazol-3-yl)-2-pyridin-4-yl-thieno[3,2-d]pyrimidin-4-yl]-3-phenyl-propane-1,2-diamine] is higher in IC50: 100 to 1000 nM for the first, 1000 to 10000 nM for the second. The first is the more potent here.

First: CC(C)(C)c1sc2c(NC[C@@H](N)Cc3ccccc3)nc(-c3ccncc3)nc2c1-c1cn[nH]c1 [compound 437, (S)-N*1*-[6-tert-Butyl-7-(1H-pyrazol-4-yl)-2-pyridin-4-yl-thieno[3,2-d]pyrimidin-4-yl]-3-phenyl-propane-1,2-diamine]
Second: N[C@H](CNc1nc(-c2ccncc2)nc2c(-c3cc[nH]c3)csc12)Cc1ccccc1 [compound 398, (S)-3-Phenyl-N*1*-[2-pyridin-4-yl-7-(1H-pyrrol-3-yl)-thieno[3,2-d]pyrimidin-4-yl]-propane-1,2-diamine]
The IC50 of the first is higher: 1000 to 10000 nM for the first, 100 to 1000 nM for the second.

Compared with O=C(Nc1csc2c(N[C@@H]3CCNC3)nc(-c3ccncc3)nc12)C1CCCCC1 [compound 473, Cyclohexanecarboxylic acid [2-pyridin-4-yl-4-((R)-pyrrolidin-3-ylamino)-thieno[3,2-d]pyrimidin-7-yl]-amide], Cc1sc2c(N[C@@H]3CCNC3)nc(-c3ccncc3)nc2c1C#CC(C)(C)O [compound 503, 2-Methyl-4-[6-methyl-2-pyridin-4-yl-4-((R)-pyrrolidin-3-ylamino)-thieno[3,2-d]pyrimidin-7-yl]-but-3-yn-2-ol] is lower in IC50: 10000 to 40000 nM for the first, 100 to 1000 nM for the second. The second is the more potent here.

First: N[C@H](CNc1nc(-c2ccncc2)nc2c(-c3cccnc3)csc12)Cc1ccccc1 [compound 410, (S)-3-Phenyl-N*1*-(2-pyridin-4-yl-7-pyridin-3-yl-thieno[3,2-d]pyrimidin-4-yl)-propane-1,2-diamine]
Second: CCc1cc(-c2csc3c(NC[C@@H](N)Cc4ccccc4)nc(-c4ccncc4)nc23)[nH]n1 [compound 571, (S)-N*1*-[7-(5-Ethyl-2H-pyrazol-3-yl)-2-pyridin-4-yl-thieno[3,2-d]pyrimidin-4-yl]-3-phenyl-propane-1,2-diamine]
The IC50 of the first is higher: 1000 to 10000 nM for the first, under 100 nM for the second.

First: c1ccc(-c2ccc(Nc3cc(-c4nc(N[C@@H]5CCNC5)c5sccc5n4)ccn3)nc2)cc1 [compound 601, {2-[2-(5-Phenyl-pyridin-2-ylamino)-pyridin-4-yl]-thieno[3,2-d]pyrimidin-4-yl}-(R)-pyrrolidin-3-yl-amine]
Second: NC(CNc1nc(-c2ccncc2F)nc2c(-c3ccc(CO)cc3)csc12)Cc1ccccc1 (stereo in doubt) [compound 424, {4-[4-((R)-2-Amino-3-phenyl-propylamino)-2-(3-fluoro-pyridin-4-yl)-thieno[3,2-d]pyrimidin-7-yl]-phenyl}-methanol]
The IC50 of the first is lower: 100 to 1000 nM for the first, 1000 to 10000 nM for the second.

CCC(O)(C#Cc1csc2c(NC[C@@H](N)Cc3ccccc3)nc(-c3ccncc3)nc12)CC [compound 525, 1-[4-(2-Amino-3-phenyl-propylamino)-2-pyridin-4-yl-thieno[3,2-d]pyrimidin-7-yl]-3-ethyl-pent-1-yn-3-ol] and CCC[C@@H](C)[C@H](O)C#Cc1csc2c(NC[C@@H](N)Cc3ccccc3)nc(-c3ccncc3)nc12 [compound 522, (S)-1-[4-((S)-2-Amino-3-phenyl-propylamino)-2-pyridin-4-yl-thieno[3,2-d]pyrimidin-7-yl]-4-methyl-hept-1-yn-3-ol] fall in the same range of IC50: 1000 to 10000 nM for the first, 1000 to 10000 nM for the second.

First: N[C@H](CNc1nc(-c2ccncc2)nc2c(C#CC3CC3)csc12)Cc1ccccc1 [compound 512, (S)-N*1*-(7-Cyclopropylethynyl-2-pyridin-4-yl-thieno[3,2-d]pyrimidin-4-yl)-3-phenyl-propane-1,2-diamine]
Second: CCOc1ccc(Cl)cc1-c1c(C)sc2c(NC[C@@H](N)Cc3ccccc3)nc(-c3ccncc3)nc12 [compound 463, (S)-N*1*-[7-(5-Chloro-2-ethoxy-phenyl)-6-methyl-2-pyridin-4-yl-thieno[3,2-d]pyrimidin-4-yl]-3-phenyl-propane-1,2-diamine]
The IC50 of the first is lower: under 100 nM for the first, 10000 to 40000 nM for the second. The first is the more potent here.

Same assay, conditions: full length PKCi at 15 μM ATP; read-out: IC50 in IMAP assay against full length PKCi (Activity)

First: c1cc(-c2nc(NC[C@H]3CCCCN3)c3c4c(sc3n2)CCCC4)ccn1 [compound 62, (R)-1-Piperidin-2-ylmethyl-(2-pyridin-4-yl-5,6,7,8-tetrahydro-benzo[4,5]thieno[2,3-d]pyrimidin-4-yl)-amine]
Second: NCCNc1nc(-c2ccncc2)nc2sc3c(c12)CCCC3 [compound 12, N*1*-(2-pyridin-4-yl-5,6,7,8-tetrahydro-benzo[4,5]thieno[2,3-d]pyrimidin-4-yl)-ethane-1,2-diamine]
The IC50 of the first is higher: 1000 to 10000 nM for the first, 100 to 1000 nM for the second. The second is the more potent here.

First: NCCNc1nc(-c2ccncc2)nc2sc3c(c12)CCSC3 [compound 44, N*1*-(2-Pyridin-4-yl-5,8-dihydro-6H-thio-pyrano[4′,3′:4,5]thieno[2,3-d]pyrimidin-4-yl)-ethane-1,2-diamine]
Second: CCCCC(=O)N1CCc2c(sc3nc(-c4ccncc4)nc(NCCN)c23)C1 [compound 110, 1-[4-(2-Amino-ethylamino)-2-pyridin-4-yl-5,8-dihydro-6H-pyrido[4′,3′:4,5]thieno[2,3-d]pyrimidin-7-yl]-pentan-1-one]
The IC50 of the first is lower: 1000 to 10000 nM for the first, 10000 to 40000 nM for the second.

CC(C)(C)C[C@H](N)CNc1nc(-c2ccncc2)nc2sc3c(c12)CCCC3 [compound 60, (S)-4,4-Dimethyl-N*1*-(2-pyridin-4-yl-5,6,7,8-tetrahydro-benzo[4,5]thieno[2,3-d]pyrimidin-4-yl)-pentane-1,2-diamine] and N[C@H](CNc1nc(-c2ccncc2)nc2sc3c(c12)CCCC3)Cc1ccncc1 [compound 56, (S)-3-Pyridin-4-yl-N*1*-(2-pyridin-4-yl-5,6,7,8-tetrahydro-benzo[4,5]thieno[2,3-d]pyrimidin-4-yl)-propane-1,2-diamine] fall in the same range of IC50: 1000 to 10000 nM for the first, 1000 to 10000 nM for the second.

Compared with N[C@@H](CNc1nc(-c2ccncc2)nc2sc3c(c12)CCOC3)Cc1ccccc1 [compound 83, (R)-3-Phenyl-N*1*-(2-pyridin-4-yl-5,8-dihydro-6H-pyrano[4′,3′:4,5]thieno[2,3-d]pyrimidin-4-yl)-propane-1,2-diamine], N[C@H](CNc1nc(-c2ccncc2)nc2sc3c(c12)CCCC3)Cc1ccc(O)cc1 [compound 55, 4-[(S)-2-Amino-3-(2-pyridin-4-yl-5,6,7,8-tetrahydro-benzo[4,5]thieno[2,3-d]pyrimidin-4-ylamino)-propyl]-phenol] is lower in IC50: 10000 to 40000 nM for the first, 1000 to 10000 nM for the second.
